Results published in patent publication US12458651B2, “Compounds and their uses for alleviating menopause-associated symptoms” (ESTETRA SRL, priority 2018, dated 2025).
Like-named read-outs stand apart in the source and are kept apart here.

Columns and labels:
post-menopausal women [1] = experiment: Dose-finding study: hot flush weekly weighted score; type: in vivo
Description: Further, the terms “Hot Flush Weekly Weighted Score”, as used herein, corresponds to a score taking into account frequency and severity which is calculated by using the severity score (as calculated above): [(1×No. of mild VMS)+(2×No. of moderate VMS)+(3×No. of severe VMS)] during a 7 day period.
Such a weighted score was for example used by Notelovitz et al. (“Initial 17β-Estradiol Dose for Treating Vasomotor Symptoms”; Obstetrics and Gynaecology, Vol. 95(5), May 2000, p. 726-731). This score was used to generate the data included in Example 1 further below, under section A. c) “Hot Flush Weekly Weighted Score”.

postmenopausal women = conditions: cited from earlier work
post-menopausal women [2] = experiment: GSM symptom: vaginal and/or vulvar irritation/itching; type: in vivo
Description: (§1) Change from baseline to week 12 in the following GSM symptoms (VVA subject self-assessment) were recorded: • a) Vaginal dryness (sensation of dryness or burning in the vagina; none=0 mild=1, moderate=2 or severe=3):
• b) Vaginal and/or vulvar irritation/itching (sensation of abnormal irritation or sensitive condition in the vagina; none=0, mild=1, moderate=2 or severe=3): […]

[3] = Triglycerides level at 15 mg and 20 mg daily doses; type: in vivo; conditions: 20 mg daily dose in place of 15 mg daily dose
Description: In order to better assess the potential for increasing the daily dose beyond the minimum effective dose of 15 mg daily, a number of parameters were followed in a study where estetrol was administered at the increased dose of 20 mg per day.
1. Triglycerides Level (mmol/L)

post-menopausal women [4] = experiment: GSM symptom: dysuria; type: in vivo
Description: as §1
• c) Dysuria (sensation of pain or difficulty in urinating; none=0, mild=1, moderate=2 or severe=3): […]

- Lipid parameters (triglycerides, cholesterol, HDL, LDL) and glucose level [3]: do not behave significantly differently
SMILES: C[C@]12CC[C@@H]3c4ccc(O)cc4CC[C@H]3[C@@H]1[C@@H](O)[C@@H](O)[C@@H]2O [Estetrol, 1,3,5 (10)-estratrien-3,15alpha,16alpha,17beta-tetrol]
- Relative change (% from baseline) in hot flush weekly weighted score, mean (section B analysis) (post-menopausal women [1]; 10 mg per day, week 2): −34%
- Relative change (% from baseline) in hot flush weekly weighted score, mean (section B analysis) (post-menopausal women [1]; 10 mg per day, week 3): −46%
- Relative change (% from baseline) in hot flush weekly weighted score, mean (section B analysis) (post-menopausal women [1]; 10 mg per day, week 4): −53%
- Relative change (% from baseline) in hot flush weekly weighted score, mean (section B analysis) (post-menopausal women [1]; 10 mg per day, week 5): −57%
- Relative change (% from baseline) in hot flush weekly weighted score, mean (section B analysis) (post-menopausal women [1]; 10 mg per day, week 6): −62%
- Relative change (% from baseline) in hot flush weekly weighted score, mean (section B analysis) (post-menopausal women [1]; 10 mg per day, week 7): −64%
- Relative change (% from baseline) in hot flush weekly weighted score, mean (section B analysis) (post-menopausal women [1]; 10 mg per day, week 8): −66%
- Relative change (% from baseline) in hot flush weekly weighted score, mean (section B analysis) (post-menopausal women [1]; 10 mg per day, week 9): −66%
- Relative change (% from baseline) in hot flush weekly weighted score, mean (section B analysis) (post-menopausal women [1]; 10 mg per day, week 10): −68%
- Relative change (% from baseline) in hot flush weekly weighted score, mean (section B analysis) (post-menopausal women [1]; 10 mg per day, week 11): −68%
- Relative change (% from baseline) in hot flush weekly weighted score, mean (section B analysis) (post-menopausal women [1]; 10 mg per day, week 12): −69%
- Relative change (% from baseline) in hot flush weekly weighted score, mean (post-menopausal women [1]; 15 mg per day, week 0): 0%
- Relative change (% from baseline) in hot flush weekly weighted score, mean (section B analysis) (post-menopausal women [1]; 15 mg per day, week 0): 0%
- Relative change (% from baseline) in hot flush weekly weighted score, mean (section B analysis) (post-menopausal women [1]; 15 mg per day, week 1): −22%
- Relative change (% from baseline) in hot flush weekly weighted score, mean (section B analysis) (post-menopausal women [1]; 15 mg per day, week 2): −45%
- Relative change (% from baseline) in hot flush weekly weighted score, mean (section B analysis) (post-menopausal women [1]; 15 mg per day, week 3): −56%
- Relative change (% from baseline) in hot flush weekly weighted score, mean (section B analysis) (post-menopausal women [1]; 15 mg per day, week 4): −66%
- Relative change (% from baseline) in hot flush weekly weighted score, mean (section B analysis) (post-menopausal women [1]; 15 mg per day, week 5): −70%
- Relative change (% from baseline) in hot flush weekly weighted score, mean (section B analysis) (post-menopausal women [1]; 15 mg per day, week 6): −72%
- Relative change (% from baseline) in hot flush weekly weighted score, mean (section B analysis) (post-menopausal women [1]; 15 mg per day, week 7): −75%
- Relative change (% from baseline) in hot flush weekly weighted score, mean (section B analysis) (post-menopausal women [1]; 15 mg per day, week 8): −76%
- Relative change (% from baseline) in hot flush weekly weighted score, mean (section B analysis) (post-menopausal women [1]; 15 mg per day, week 9): −78%
- Relative change (% from baseline) in hot flush weekly weighted score, mean (section B analysis) (post-menopausal women [1]; 15 mg per day, week 10): −77%
- Relative change (% from baseline) in hot flush weekly weighted score, mean (section B analysis) (post-menopausal women [1]; 15 mg per day, week 11): −79%
- Relative change (% from baseline) in hot flush weekly weighted score, mean (section B analysis) (post-menopausal women [1]; 15 mg per day, week 12): −81%
- Endometrial thickness (postmenopausal women; 2 mg estetrol per day): stable
- Endometrial thickness (postmenopausal women; 10 mg estetrol per day): increasing
- Vaginal and/or vulvar irritation/itching score (none=0 to severe=3), mean ± SD (post-menopausal women [2]; E4 2.5 mg, Baseline): 0.7 ± 0.96
- Vaginal and/or vulvar irritation/itching score (none=0 to severe=3), mean ± SD (post-menopausal women [2]; E4 2.5 mg, Week 12): 0.3 ± 0.60
- Vaginal and/or vulvar irritation/itching score (none=0 to severe=3), mean ± SD (post-menopausal women [2]; E4 5 mg, Baseline): 0.6 ± 0.90
- Vaginal and/or vulvar irritation/itching score (none=0 to severe=3), mean ± SD (post-menopausal women [2]; E4 5 mg, Week 12): 0.4 ± 0.65
- Vaginal and/or vulvar irritation/itching score (none=0 to severe=3), mean ± SD (post-menopausal women [2]; E4 10 mg, Baseline): 0.7 ± 0.87
- Vaginal and/or vulvar irritation/itching score (none=0 to severe=3), mean ± SD (post-menopausal women [2]; E4 10 mg, Week 12): 0.3 ± 0.64
- Vaginal and/or vulvar irritation/itching score (none=0 to severe=3), mean ± SD (post-menopausal women [2]; E4 15 mg, Baseline): 0.5 ± 0.85
- Vaginal and/or vulvar irritation/itching score (none=0 to severe=3), mean ± SD (post-menopausal women [2]; E4 15 mg, Week 12): 0.4 ± 0.70
- Dysuria score (none=0 to severe=3), mean ± SD (post-menopausal women [4]; E4 2.5 mg, Baseline): 0.2 ± 0.56
- Dysuria score (none=0 to severe=3), mean ± SD (post-menopausal women [4]; E4 2.5 mg, Week 12): 0 ± 0.19
- Dysuria score (none=0 to severe=3), mean ± SD (post-menopausal women [4]; E4 5 mg, Baseline): 0.2 ± 0.56
- Dysuria score (none=0 to severe=3), mean ± SD (post-menopausal women [4]; E4 5 mg, Week 12): 0 ± 0.20
- Dysuria score (none=0 to severe=3), mean ± SD (post-menopausal women [4]; E4 10 mg, Baseline): 0.2 ± 0.58
- Dysuria score (none=0 to severe=3), mean ± SD (post-menopausal women [4]; E4 10 mg, Week 12): 0.1 ± 0.23
- Dysuria score (none=0 to severe=3), mean ± SD (post-menopausal women [4]; E4 15 mg, Baseline): 0.3 ± 0.58
- Dysuria score (none=0 to severe=3), mean ± SD (post-menopausal women [4]; E4 15 mg, Week 12): 0.3 ± 0.61
